The record followed here is paper PMC8512853, “Synthesis, Bioactivity, Pharmacokinetic and Biomimetic Properties of Multi-Substituted Coumarin Derivatives” (Molecules, 2021).

One may read the viability as a per cent measure of how many cells are alive, often set against a control. Read a low viability as more harm to the cells.

For data set [1], the system named is HaCaT cells. Put plainly: DCF-DA assay (intracellular ROS after H2O2). Type of data set: cell-based, human. The settings on record: H2O2 treatment, 24 h; for inhibition at 100 µM: Homo sapiens, 100 μΜ, read-out: DCFDA Assay, % (100 μΜ). The text has this:
In the setting of evaluating bioactive compounds in terms of antioxidant capacity in various cell lines, DCF-DA is the most widely used assay for the detection of intracellular H2O2 and oxidative stress. DCF-DA is cell-permeable and is hydrolyzed intracellularly to the DCFH carboxylate anion, which is retained in the cell.
DCFDA is a fluorescent dye that measures the activity of hydroxyl radicals, peroxyl radicals, and other reactive oxygen species (ROS) within the cell. The DCFDA analysis protocol is based on the diffusion of DCFDA into the cell. It is then deacetylated from cellular esterases to a non-fluorescent compound, which is later oxidized by ROS to 2’,7’ -dichlorofluoroscein (DCF). The produced compound (DCF) is fluorescent and is detected by fluorescence spectroscopy at 485/535 nm (excitation/emission).
For the experimental procedure a standard solution of DCF-DA (20mM) in DMSO was prepared which was stored in the dark (−20 °C) until use. In a 96-well plate, cells were cultured to a density of 3 × 10^4 cells/well.
The cells remained in the incubator (37 °C, 5% CO2) for 24 h, after which an appropriate amount of H2O2 (2 mM) was added and the dish was returned for incubation for the next 2 h. This was followed by the addition of the test substances (100μM) and incubation for 24 h. At the end of the treatment time, all wells were washed with PBS, and DCF-DA solution (working concentration: 10 μM) (in 200 μL of nutrient) was added and incubated for 40 min.
After incubation, the medium with the DCF-DA was removed and replaced with FBS-free DMEM. The measurement of the […] was made immediately after that in a plate reader at 495/530 nm (excitation/emission).
All samples were tested in triplicates, against a control (without effects), blank (without cells), and positive control (standard 100 μM Ascorbic acid solution was used).
The percentage of antioxidant capacity (%) was calculated according to the following Equation (6) evaluating the presence of ROS [42]:(6) % AI=( OD Sample 530 nm−Blank)−(OD Control 530 nm−Blank)/(OD Control 530 nm−Blank) × 100

Data set [2] in a line: MTT cell viability assay, HaCaT. Type of data set: cell-based, human. The settings on record: human, HaCaT cells, 100 μΜ, 24 h. The text has this: The MTT assay (3- [4,5-dimethylthiazol-2-yl] -2,5 diphenyl tetrazole) is based on the conversion of MTT to formazan crystals by living cells, which determines mitochondrial activity. Since for most cell populations total mitochondrial activity is related to the number of viable cells, this assay is widely used to measure the in vitro cytotoxic effects of drugs on various cell lines or primary cells. The principle of the MTT assay is that for most viable cells the mitochondrial activity is stable, and therefore, an increase or decrease in the number of viable cells is linearly related to mitochondrial activity. The mitochondrial activity of the cells is reflected by the conversion of the MTT tetrazole salt to formazan crystals (bright purple), which can be solubilized (in this protocol with DMSO) for homogeneous measurement. Thus, any increase or decrease in the number of viable cells can be detected by measuring the formazan concentration reflected in the optical density (OD) measurement at 540 nm with a reference absorption of 720 nm.
All the compounds were tested for their cytotoxic activity against blank and control samples in the human epidermal keratinocyte line (HaCaT), at the concentration of 100 μΜ, and the results are presented in Table 4.
(§1) This protocol was used for the evaluation of cell viability and all the cell lines. It must be noted that this assay describes the count of cells that remain alive after the treatment. For the experimental procedure a standard solution of MTT 1mg/mL in PBS was prepared which after filtration ([…] filter (Millipore, Carrigtwohill, Ireland)) was stored in the dark (4–8 °C) until use. In a 96-well plate, HaCaT, A549 and A375 cells were seeded in a number of 30 × 10^4 cells/well for each evaluation series respectively. The cells were incubated (37 °C, 5% CO2) for 24 h, followed by the addition of the tested analogues (100 μM, diluted in DMEM) and another 24-h incubation. Next, appropriate amount of MTT was added in the tested wells and the plate returned to the incubator for the next 4 h for the formation of the formazan crystals. The formazan crystals were then redissolved by adding DMSO (100 μL) and stirring lightly for 40 min, after which the absorbance was measured in a plate reader at 540 nm with a reference absorbance of 720 nm.
(§2) All samples were tested in triplicate, against a control (only cells), blank (no cells), and positive control (100 μM standard silibinin solution was used as a “cell-killing” standard).
For orientation: Tetrazolium assays rely on reduction of a dye to a coloured formazan, in cell work by metabolically active cells.

A short description of data set [3]: ABTS radical scavenging assay. The conditions noted are these: 6 min. Here is the method:
The ABTS radical cation scavenging assay is a decolorization assay frequently used as an antioxidant activity estimation protocol. […] The absorbance is measured at 734 nm and the antioxidant capacity is compared to a standard antioxidant solution, such as ascorbic acid.
For the evaluation of antioxidant activity, the scavenging capacities of all samples were measured via the ABTS assay, as previously described by Kontogiorgis et al. with some modifications. Briefly, an ethanolic standard ABTS solution (7 mM) was prepared by the addition of ABTS salt and potassium persulfate. […] Each sample was diluted in DMSO and tested in triplicate. The tested mixture contained 10–20 µL of sample and 990–980 µL of the ABTS solution, for a total volume of 1 ml. Blank samples contained equal amounts of DMSO instead of the coumarin analogues, and ascorbic acid was used as a reference sample for the final evaluation of the ABTS scavenging capacity. All mixtures were stored at room temperature to allow decolorization and measured after 6 min. The percentage reduction of the ABTS radical was evaluated according to the following Equation (3):(3) % Reduction=Control OD (mean)−Sample OD (mean)/Control OD (mean)×100

Data set [4] has as its system A375 cells. Put plainly: MTT cytotoxicity assay, A375. It is filed as cell-based, human. The settings on record: for cytotoxicity at 100 µM: Homo sapiens, A-375, 24 h, A375, 100 μΜ, read-out: Cell Toxicity A375 % (100 μΜ). Here is the method:
(§3) Furthermore, the coumarin compounds synthesized in this study were also evaluated for their cytotoxicity against A549 (adenocarcinomic human alveolar basal epithelial cells) and A375 (human melanoma) cell lines.
as §1, §2

Data set [5] has as its system A549 cells. Put plainly: MTT cytotoxicity assay, A549. Type of data set: cell-based, human. The conditions noted are these: 24 h; for cytotoxicity at 100 µM: Homo sapiens, A549, 100 μΜ, read-out: Cell Toxicity A549 % (100 μΜ). Here is the method:
as §3, §1, §2

With `Cc1c(-c2ccccc2Cl)c(=O)oc2cccc(O)c12` [Compound 4a, 3-(2-chlorophenyl)-5-hydroxy-4-methyl-chromen-2-one], the inhibition at 100 µM in data set [1] came to 0%. The molecule further had a viability at 24 h, 100 μM in data set [2] of 100%. Moreover, the “ABTS^•+ % (100 μΜ)” value in data set [3] is listed as 56.5%. Further, the figures for the cytotoxicity at 100 µM in data set [4] and in data set [5] were 33.1% and 64.7%, respectively.
Turning to `Cc1c(-c2cccc(Cl)c2)c(=O)oc2cccc(O)c12` [Compound 4b, 3-(3-chlorophenyl)-5-hydroxy-4-methyl-chromen-2-one], the inhibition at 100 µM in data set [1] worked out at 27.4%. In data set [2], this molecule came in with a viability at 24 h, 100 μM of 100%. For the same molecule, in data set [3], the “ABTS^•+ % (100 μΜ)” value stood at 49.2%. Further, the cytotoxicity at 100 µM in data set [4] came to 52.8%. Besides, the “Cell Toxicity A549 % (100 μΜ)” value in data set [5] is listed as “no”.
As to `Cc1c(-c2ccc(Cl)cc2)c(=O)oc2cccc(O)c12` [Compound 4c, 3-(4-chlorophenyl)-5-hydroxy-4-methyl-chromen-2-one], the “DCFDA Assay, % (100 μΜ)” value in data set [1] is listed as “no”. In addition, the viability at 24 h, 100 μM in data set [2] stood at 63.7%. Also, the “ABTS^•+ % (100 μΜ)” value in data set [3] stood at 65.2%. The cytotoxicity at 100 µM in data set [4] came out at 22.2%; in data set [5], 54.5%.
The like results for `Cc1c(-c2ccccc2F)c(=O)oc2cccc(O)c12` [Compound 4d, 3-(2-fluorophenyl)-5-hydroxy-4-methyl-chromen-2-one] were, in that order, “no”, 100%, 73.3%, 11.5% and 75.7%.
In the case of `Cc1c(-c2cccc(F)c2)c(=O)oc2cccc(O)c12` [Compound 4e, 3-(3-fluorophenyl)-5-hydroxy-4-methyl-chromen-2-one], in data set [1], the “DCFDA Assay, % (100 μΜ)” value is reported as “no”. This molecule also gave a viability at 24 h, 100 μM in data set [2] of 92.4%. For the same molecule, in data set [3], the “ABTS^•+ % (100 μΜ)” value was 69.2%. Also, the figures for the cytotoxicity at 100 µM in data set [4] and in data set [5] were 43.1% and 52.3%, respectively.
As for `Cc1c(-c2ccc(F)cc2)c(=O)oc2cccc(O)c12` [Compound 4f, 3-(4-fluorophenyl)-5-hydroxy-4-methyl-chromen-2-one], the “DCFDA Assay, % (100 μΜ)” value in data set [1] is reported as “no”. In data set [2], this molecule yielded a viability at 24 h, 100 μM of 100%. For the same molecule, the “ABTS^•+ % (100 μΜ)” value in data set [3] was 64.2%. The values for the cytotoxicity at 100 µM in data set [4] and in data set [5] were 45.4% and 62.5%, respectively.
Take `Cc1c(-c2ccc(O)cc2)c(=O)oc2ccccc12` [Compound 4h, 3-(4-hydroxyphenyl)-4-methyl-chromen-2-one]: the “DCFDA Assay, % (100 μΜ)” value in data set [1] was “no”. For the same molecule, in data set [2], the viability at 24 h, 100 μM turned out to be 100%. Also, in data set [3], the “ABTS^•+ % (100 μΜ)” value is 8.6%. The cytotoxicity at 100 µM was determined as 12.6% in data set [4] and 33.7% in data set [5].
Turning to `Cc1c(-c2ccc(O)cc2)c(=O)oc2ccc(Br)cc12` [Compound 4i, 6-bromo-3-(4-hydroxyphenyl)-4-methyl-chromen-2-one], the inhibition at 100 µM in data set [1] is 100%. Besides, in data set [2], the viability at 24 h, 100 μM was found to be 100%. For the same molecule, in data set [3], the “ABTS^•+ % (100 μΜ)” value was “no”. Moreover, the cytotoxicity at 100 µM in data set [4] is 6.48%; in data set [5], 21.7%.
For the molecule `Cc1c(-c2ccc(O)cc2)c(=O)oc2ccc(Cl)cc12` [Compound 4j, 6-chloro-3-(4-hydroxyphenyl)-4-methyl-chromen-2-one], the inhibition at 100 µM in data set [1] amounted to 2.1%. Further, in data set [2], the viability at 24 h, 100 μM came to 73%. Besides, the “ABTS^•+ % (100 μΜ)” value in data set [3] is listed as “no”. Moreover, the cytotoxicity at 100 µM was 11.9% in data set [4] and 33.5% in data set [5].
On to `Cc1c(-c2ccc(O)cc2)c(=O)oc2c(Br)cc(Br)cc12` [Compound 4k, 6,8-dibromo-3-(4-hydroxyphenyl)-4-methyl-chromen-2-one], for which the “DCFDA Assay, % (100 μΜ)” value in data set [1] is “no”. The molecule further gave a viability at 24 h, 100 μM in data set [2] of 100%. The “ABTS^•+ % (100 μΜ)” value in data set [3] came to 27.8%. Moreover, the “Cell Toxicity A375 % (100 μΜ)” value in data set [4] (24 h) was “no”. Further, the cytotoxicity at 100 µM in data set [5] turned out to be 66.5%.
